In patent US20260109672A1, “SARS-COV-2 MPRO INHIBITORS AND USES THEREOF” (NXERA PHARMA UK LIMITED, priority 2022, published 2026):

Molecular target: SARS-CoV-2 Mpro (Severe acute respiratory syndrome coronavirus 2, UniProt P0DTD1)
Test: Modified SARS-CoV-2 Mpro enzyme assay (FRET, kinetic read) for reference examples
Type: biochemical
Conditions: 5 nM Mpro, 20 min preincubation at room temperature, mean n=2, set out in PCT/GB2022/050836

Q: With “(1R,2S,5S)-N-[3-amino-1-(cyclopropylmethyl)-2,3-dioxo-propyl]-6,6-dimethyl-3-[(2S)-3-methyl-2-[(2,2,2-trifluoroacetyl)amino]butanoyl]-3-azabicyclo[3.1.0]hexane-2-carboxamide [Example 3]” as the substance, how does the “SARS-CoV-2 Mpro enzyme pKi assay pKi” value read?
A: Its value is 7.1.

Q: How did the “SARS-CoV-2 Mpro enzyme pKi assay pKi” value turn out when “(1R,2S,5S)-N-(4-(cyclopropylamino)-3,4-dioxo-1-((S)-2-oxopyrrolidin-3-yl)butan-2-yl)-3-((E)-3-(2,4-difluorophenyl)acryloyl)-6,6-dimethyl-3-azabicyclo[3.1.0]hexane-2-carboxamide [Example 7]” was run?
A: Its value is 6.7.

Q: Which “SARS-CoV-2 Mpro enzyme pKi assay pKi” value does the source give for “(1R,2S,5S)-N-[1-(cyclopropylmethyl)-3-(methylamino)-2,3-dioxo-propyl]-3-[(2S)-3,3-dimethyl-2-[(2,2,2-trifluoroacetyl)amino]butanoyl]-6,6-dimethyl-3-azabicyclo[3.1.0]hexane-2-carboxamide [Example 2]” here?
A: Its value is 7.3.

Q: Which “SARS-CoV-2 Mpro enzyme pKi assay pKi” value does the source give for “(1R,2S,5S)-N-(4-(cyclopropylamino)-3,4-dioxo-1-((S)-2-oxopyrrolidin-3-yl)butan-2-yl)-3-((S)-3,3-dimethyl-2-(2,2,2-trifluoroacetamido)butanoyl)-6,6-dimethyl-3-azabicyclo[3.1.0]hexane-2-carboxamide [Example 1]” here?
A: Its value is 7.8.

Q: “(1R,2S,5S)-N-[3-(cyclopropylamino)-2,3-dioxo-1-[[(3R)-2-oxo-3-piperidyl]methyl]propyl]-3-[(2S)-3,3-dimethyl-2-[(2,2,2-trifluoroacetyl)amino]butanoyl]-6,6-dimethyl-3-azabicyclo[3.1.0]hexane-2-carboxamide [Example 6]” was tested. Which “SARS-CoV-2 Mpro enzyme pKi assay pKi” value did it give?
A: Its value is 6.7.

Q: Which “SARS-CoV-2 Mpro enzyme pKi assay pKi” value does the source give for “(1R,2S,5S)-N-[3-amino-1-(cyclobutylmethyl)-2,3-dioxo-propyl]-3-[(2S)-3,3-dimethyl-2-[(2,2,2-trifluoroacetyl)amino]butanoyl]-6,6-dimethyl-3-azabicyclo[3.1.0]hexane-2-carboxamide [Example 4]” here?
A: Its value is 7.3.

Q: For “(1R,2S,5S)-N-[3-(cyclopropylamino)-2,3-dioxo-1-[(3S)-2-oxopyrrolidin-3-yl]methyl]propyl]-3-[(2S)-3,3-dimethyl-2-(2-methylpropanoylamino)butanoyl]-6,6-dimethyl-3-azabicyclo[3.1.0]hexane-2-carboxamide [Example 5]”, which “SARS-CoV-2 Mpro enzyme pKi assay pKi” value is on record?
A: Its value is 6.8.
